Measured values: patent US20060069132A1, “Azolecarboxamide herbicides” (priority 2004, published 2006)

Legend:
[1] = system: smallflower umbrella sedge; assay: Test C flooded paddy test; assay type: in vivo, Cyperus difformis; details: for Plant response rating, Sedge, Umbrella: 500 g ai/ha, visual rating after 12 to 14 days
cocklebur = assay: Test B pre-/postemergence herbicide test; assay type: in vivo, Xanthium strumarium
In short: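 Formulation: non-phytotoxic solvent mix with surfactant. Timing: preemergence on seed and postemergence on 2–18 cm plants, applied concurrently. Readout after 13–15 d greenhouse: visual 0–100 control rating against controls.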

barnyardgrass = assay: Test B flooded paddy test; assay type: in vivo, Echinochloa crus-galli; details: 1000 g ai/ha, scale 0 to 100 (0 no effect, 100 complete control)
In short: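 Scale 0–100: zero equals no visible effect, 100 complete control, judged by eye relative to controls. Timing: 13 to 15 days in greenhouse post-treatment. Growth stage at spraying: two leaves (paddy) or one to four leaves, 2–18 cm (postemergence).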

yellow nutsedge = assay: Test C pre-/postemergence herbicide test; assay type: in vivo, Cyperus esculentus; details: for Plant response rating, Nutsedge, Yellow: preemergence
In short: (§1)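 Seeds were planted and sprayed preemergence with test chemicals in a non-phytotoxic solvent mixture containing surfactant; postemergence treatments went onto plants 2 to 18 cm tall (1- to 4-leaf stage). After 12 to 14 days in a greenhouse, injury was rated visually against untreated controls on a 0–100 scale.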

rice = assay: Test B pre-/postemergence herbicide test; assay type: in vivo, Oryza sativa; details: preemergence
In short: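 Pre: seeds sown, then sprayed. Post: 1–4-leaf plants (2–18 cm) sprayed at the same time. Paddy: flooded, treated at 2-leaf stage. Formulation: non-phytotoxic solvent with surfactant. Greenhouse 13–15 days; visual 0–100 score relative to controls.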

goosegrass = assay: Test C pre-/postemergence herbicide test; assay type: in vivo, Eleusine indica; details: for Plant response rating, Goosegrass: preemergence
In short: as §1

woolly cupgrass = assay: Test C pre-/postemergence herbicide test; assay type: in vivo, Eriochloa villosa; details: for Plant response rating, Cupgrass, Woolly: preemergence
In short: as §1

common ragweed = assay: Test C pre-/postemergence herbicide test; assay type: in vivo, Ambrosia elatior; design: key to Plant response rating, Ragweed: 0 = no effect, 100 = complete control; details: for Plant response rating, Ragweed: preemergence
In short: as §1

[2] = 250 g ai/ha, scale of 0 to 100, 0 is no effect, 100 is complete control
[3] = 125 g ai/ha, scale 0 (no effect) to 100 (complete control), visual, 12 to 14 days
[4] = Preemergence, 500 g ai/ha, scale 0 to 100, 0 no effect, 100 complete control
[5] = 125 g ai/ha, scale 0 to 100 (0 no effect, 100 complete control)
[6] = scale 0 to 100 (0 no effect, 100 complete control)
[7] = 125 g ai/ha; 0 = no effect, 100 = complete control; preemergence
[8] = 125 g ai/ha; visual rating, scale 0 (no effect) to 100 (complete control); postemergence
[9] = 500 g ai/ha; visual rating, 0 = no effect, 100 = complete control; preemergence
[10] = postemergence, 500 g ai/ha; scale 0 to 100, 0 is no effect, 100 is complete control
[11] = 500 g ai/ha, scale 0 to 100 (0 no effect, 100 complete control), visual, 12 to 14 days
[12] = 125 g ai/ha, 0 = no effect, 100 = complete control
[13] = 500 g ai/ha, visual rating, 0 = no effect, 100 = complete control

Row | Structure (SMILES) | Sedge, Umbrella plant response rating [1, 2] | Plant response rating, Nutsedge, Yellow (yellow nutsedge; 62 g ai/ha, scale 0 to 100) | Plant response rating, Nutsedge, Yellow (yellow nutsedge; [3]) | Plant response rating, Goosegrass (goosegrass; 62 g ai/ha, scale 0 to 100) | Plant response rating, Goosegrass (goosegrass; [3]) | Plant response rating, Cupgrass, Woolly (woolly cupgrass; 62 g ai/ha, scale 0 to 100) | Plant response rating, Cupgrass, Woolly (woolly cupgrass; [3]) | Plant response rating, Ragweed (common ragweed; 62 g ai/ha, scale 0 to 100) | Sedge, Umbrella plant response rating ([1]; 62 g ai/ha, scale 0 to 100) | Sedge, Umbrella plant response rating [1, 5] | Plant response rating, Sedge, Umbrella [1, 6] | Cocklebur plant response rating (0 to 100 scale) (cocklebur; [7]) | Cocklebur plant response rating (cocklebur; [8]) | Plant response rating, Cocklebur (cocklebur; [9]) | Cocklebur plant response rating (cocklebur; [10]) | Barnyardgrass plant response rating (barnyardgrass) | Plant response rating, Nutsedge, Yellow (yellow nutsedge; 250 g ai/ha, scale 0-100) | Plant response rating, Nutsedge, Yellow (yellow nutsedge; [11]) | Rice plant response rating (0 to 100 scale) (rice; [12]) | Plant response rating, Rice (rice; [13]) | other results
1 | CCn1nc(C(C)(C)C)cc1C(=O)Nc1cccc(C(N)=O)n1 [Compound 162, 6-[[[3-(1,1-dimethylethyl)-1-ethyl-1H-pyrazol-5-yl]carbonyl]amino]-2-pyridinecarboxamide] | 75 | 0 | 20 | 60 | 60 | 0 | 0 | 95 |  |  |  |  |  |  |  |  |  |  |  |  | Sedge, Umbrella plant response rating ([1]; 62 g ai/ha, scale 0 to 100 (0 no effect, 100 complete control)): 70; Plant response rating, Cocklebur (cocklebur; 500 g ai/ha; visual rating 0-100, 0 no effect, 100 complete control; preemergence): 90; Cocklebur plant response rating (cocklebur; postemergence, 125 g ai/ha; visual rating, scale 0 (no effect) to 100 (complete control)): 10; Cocklebur plant response rating (cocklebur; postemergence, 500 g ai/ha; visual rating, scale 0 (no effect) to 100 (complete control)): 60; Plant response rating, Cocklebur (cocklebur; preemergence, 125 g ai/ha; 0 to 100 scale, 0 is no effect, 100 is complete control): 30; Barnyardgrass plant response rating (barnyardgrass; visual rating, 13 to 15 days): 80; Nutsedge, Yellow plant response rating (yellow nutsedge; [4]): 60; Plant response rating, Rice (rice; 500 g ai/ha, visual rating 0-100, 0 no effect, 100 complete control): 90; Plant response rating, Rice (rice; 125 g ai/ha, 0 to 100 scale, 0 is no effect, 100 is complete control): 90; Goosegrass plant response rating (goosegrass; [4]): 80; Plant response rating, Cupgrass, Woolly (woolly cupgrass; 250 g ai/ha, scale 0 to 100 (0 no effect, 100 complete control), visual, 12 to 14 days): 0; Cupgrass, Woolly plant response rating (woolly cupgrass; [4]): 100; Plant response rating, Ragweed (common ragweed; [3]): 95; Ragweed plant response rating (common ragweed; [4]): 100
2 | CCc1nn(C(C)(C)C)cc1C(=O)Nc1cc(C(=O)N(C)C)ccn1 [Compound 293] | 80 | 0 | 0 | 65 | 85 | 45 | 70 | 85 | 20 | 75 | 90 | 60 | 20 | 90 | 30 | 90 | 0 | 20 | 90 | 100 | Plant response rating, Goosegrass (goosegrass; 250 g ai/ha, scale 0-100): 95; Plant response rating, Goosegrass (goosegrass; [11]): 100; Plant response rating, Cupgrass, Woolly (woolly cupgrass; 250 g ai/ha, scale 0-100): 95; Plant response rating, Cupgrass, Woolly (woolly cupgrass; [11]): 100; Plant response rating, Ragweed (common ragweed; 250 g ai/ha, scale 0-100): 100; Plant response rating, Ragweed (common ragweed; [11]): 100
3 | CCn1nc(C(C)(C)C)cc1C(=O)Nc1cc(C(=S)N(C)C)ccc1F [Compound 294] | 90 | 50 | 55 | 80 | 80 | 55 | 75 | 100 | 80 | 85 | 90 | 90 | 30 | 100 | 30 | 90 | 80 | 90 | 90 | 100 | Plant response rating, Goosegrass (goosegrass; 250 g ai/ha, scale 0-100): 85; Plant response rating, Goosegrass (goosegrass; [11]): 100; Plant response rating, Cupgrass, Woolly (woolly cupgrass; 250 g ai/ha, scale 0-100): 80; Plant response rating, Cupgrass, Woolly (woolly cupgrass; [11]): 85; Plant response rating, Ragweed (common ragweed; 250 g ai/ha, scale 0-100): 100; Plant response rating, Ragweed (common ragweed; [11]): 100
4 | CCn1nc(C2(C)CC2)cc1C(=O)Nc1cc(C(=O)N(C)C)ccc1F [Compound 299] | 95 | 40 | 50 | 100 | 100 | 50 | 70 | 100 | 85 | 95 | 95 | 20 | 20 | 60 | 70 | 90 | 60 | 80 | 80 | 90 | Plant response rating, Goosegrass (goosegrass; 250 g ai/ha, scale 0-100): 100; Plant response rating, Goosegrass (goosegrass; [11]): 100; Plant response rating, Cupgrass, Woolly (woolly cupgrass; 250 g ai/ha, scale 0-100): 90; Plant response rating, Cupgrass, Woolly (woolly cupgrass; [11]): 100; Plant response rating, Ragweed (common ragweed; 250 g ai/ha, scale 0-100): 100; Plant response rating, Ragweed (common ragweed; [11]): 100
5 | CCn1nc(C(C)(C)C)cc1C(=S)Nc1cc(C(=S)N(C)C)ccc1F [Compound 305] | 90 | 10 | 20 | 80 | 85 | 20 | 60 | 10 | 85 | 90 | 90 | 50 | 10 | 70 | 10 | 90 | 25 | 50 | 70 | 80 | Plant response rating, Goosegrass (goosegrass; 250 g ai/ha, scale 0-100): 95; Plant response rating, Goosegrass (goosegrass; [11]): 95; Plant response rating, Cupgrass, Woolly (woolly cupgrass; 250 g ai/ha, scale 0-100): 60; Plant response rating, Cupgrass, Woolly (woolly cupgrass; [11]): 70; Plant response rating, Ragweed (common ragweed; 250 g ai/ha, scale 0-100): 85; Plant response rating, Ragweed (common ragweed; [11]): 100
6 | CCNC(=O)c1cccc(NC(=O)c2cc(C3(C)CC3)nn2CC)c1 [Compound 306] | 90 | 0 | 0 | 50 | 70 | 5 | 15 | 0 | 85 | 90 | 90 | 0 | 30 | 50 | 70 | 80 | 10 | 40 | 60 | 80 | Plant response rating, Goosegrass (goosegrass; 250 g ai/ha, scale 0-100): 100; Plant response rating, Goosegrass (goosegrass; [11]): 100; Plant response rating, Cupgrass, Woolly (woolly cupgrass; 250 g ai/ha, scale 0-100): 30; Plant response rating, Cupgrass, Woolly (woolly cupgrass; [11]): 50; Plant response rating, Ragweed (common ragweed; [11]): 100
